In patent US20140100216A1, “STIMULATORS OF INCRETIN HORMONES SECRETION, METHOD FOR PREPARATION AND USE THEREOF” (priority 2011, published 2014):

How the values were obtained:
[1] = target: T1, human TGR5 (hTGR5) receptors (Homo sapiens, UniProt Q8TDU6); assay: Agonistic activity towards TGR5 receptors, increase of intracellular cAMP in HEK-293 cells; format: cell-based; settings: HEK-293 cells expressing hTGR5, read-out: Activity (agonistic activity, EC50 class)
T1 construct: expressed in transfected cells; host or cells: HEK-293
T1 sequence (Q8TDU6 1-330): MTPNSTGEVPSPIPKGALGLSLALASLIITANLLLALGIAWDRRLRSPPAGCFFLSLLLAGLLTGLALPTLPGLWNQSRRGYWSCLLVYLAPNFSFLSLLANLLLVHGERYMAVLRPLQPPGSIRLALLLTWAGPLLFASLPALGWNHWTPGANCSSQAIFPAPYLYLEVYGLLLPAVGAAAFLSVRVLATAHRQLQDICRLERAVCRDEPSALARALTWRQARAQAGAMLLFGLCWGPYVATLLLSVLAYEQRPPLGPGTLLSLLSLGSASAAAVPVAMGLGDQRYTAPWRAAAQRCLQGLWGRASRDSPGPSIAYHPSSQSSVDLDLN
Description: Screening of compounds of the general formula 1 was carried out in experiments on cells of HEK-293 line, in which human TGR5 (hTGR5) receptors were expressed. Agonistic activity of compounds was estimated by increasing of intracellular cAMP concentration.

[2] = tested on: diabesity mice of db/db line; assay: Influence of rectal administration of bile acid GDC on blood glucose level; format: in vivo; settings: male db/db mice
Description: The influence of rectal administration of glycodeoxycholic acid (GDC) on glucose level in blood was studied at diabesity mice of db/db line. Glucose level at male db/db mice (39.5 g) was measured 24 hs before and at the moment of rectal administration, and then in 1, 2, 3, 4, 5, 6, and 24 hs afterwards. […] The gel was prepared on the base of methyl cellulose water solution (1%) and Tween-80 (2%). GDC BA administration in both doses effectively and statistically valid reduced glucose concentration in plasma of diabesity mice of db/db line (on 24%—at 50 mmol and on 20% at 5 mmol).

[3] = tested on: diabesity mice of db/db line; assay: Influence of rectal BA administration on weight change at diabesity; format: in vivo; settings: GDC 5 and 50 mmol gel rectally + Sitagliptin 30 mg/kg peroral, weighed 2 days after administration
Description: Influence of rectal administration of glycodeoxycholic acid (GDC) on weight change of mice of db/db line at diabesity was investigated. […] The gel was prepared on the base of methyl cellulose water solution (1%) and Tween-80 (2%). The animals were weighted 2 days before the experiment, at the moment of administration and 2 days after administration of compositions.

## Cc1cccc(-c2ccccc2CN2C(=O)COc3ccccc3C2C(=O)NC(C)(C)C)c1 (stereo not drawn) [Compound 97, 4-[2-(3-methylphenyl)benzyl]-3-oxo-2,3,4,5-tetrahydrobenzo[f][1,4]oxazepine-5-carboxylic acid tert-butylamide]
[1]
  EC50: > 10 µM

## CC(C)(C)NC(=O)C1c2cc(F)ccc2OCCN1Cc1ccccc1-c1ccc(F)cc1 (stereo not drawn) [Compound 50, 4-[2-(4-fluorophenyl)benzyl]-7-fluoro-2,3,4,5-tetrahydrobenzo[f][1,4]oxazepine-5-carboxylic acid tert-butylamide]
[1]
  EC50: < 1 µM

## O=C(NC1CCCC1)C1c2cc(C(F)(F)F)ccc2OCC(=O)N1Cc1cccc(-c2ccccc2)c1 (stereo not drawn) [Compound 81, 4-(3-phenylbenzyl)-3-oxo-7-trifluoromethyl-2,3,4,5-tetrahydrobenzo[f][1,4]oxazepine-5-carboxylic acid cyclopentylamide]
[1]
  EC50: > 10 µM

## O=C(NC1CCCCC1)C1c2cc(C(F)(F)F)ccc2OCCN1Cc1cccc(-c2ccccc2)c1 (stereo not drawn) [Compound 15, 4-(3-phenylbenzyl)-7-trifluoromethyl-2,3,4,5-tetrahydrobenzo[f][1,4]oxazepine-5-carboxylic acid cyclohexylamide]
[1]
  EC50: < 1 µM

## N[C@@H](CC(=O)N1CCn2c(nnc2C(F)(F)F)C1)Cc1cc(F)c(F)cc1F [Sitagliptin, reference compound]
[2]; Sitagliptin alone (vehicle gel + Sitagliptin 30 mg/kg)
  lowering of glucose level in blood plasma: 5-10%

## O=C(NC1CCCC1)C1c2cc(C(F)(F)F)ccc2OCCN1Cc1cccc(-c2ccccc2)c1 (stereo not drawn) [Compound 14, 4-(3-pheylbenzyl)-7-trifluoromethyl-2,3,4,5-tetrahydrobenzo[f][1,4]oxazepine-5-carboxylic acid cyclopentylamide]
[1]
  EC50: > 10 µM

## Cc1ccc(-c2ccccc2CN2C(=O)COc3ccccc3C2C(=O)NC(C)(C)C)cc1 (stereo not drawn) [Compound 96, 4-[2-(4-methylphenyl)benzyl]-3-oxo-2,3,4,5-tetrahydrobenzo[f][1,4]oxazepine-5-carboxylic acid tert-butylamide]
[1]
  EC50: 1 to 10 µM

## CC(CCC(=O)NCC(=O)O)C1CCC2C3CCC4CC(O)CCC4(C)C3CC(O)C12C (stereo not drawn) [GDC, glycodeoxycholic acid]
[2]; GDC 5 mmol gel rectally + Sitagliptin 30 mg/kg perorally 15 min before
  reduction of glucose concentration in plasma: 20%
[2]; GDC 50 mmol gel rectally + Sitagliptin 30 mg/kg perorally 15 min before
  reduction of glucose concentration in plasma: 24%
[3]
  weight change of animals: effectively and statistically-valid reduced weights of experimental animals

## CC(C)(C)NC(=O)C1c2ccccc2OCC(=O)N1Cc1ccccc1-c1ccncc1 (stereo not drawn) [Compound 90, 4-[2-(pyridin-4-yl)benzyl]-3-oxo-2,3,4,5-tetrahydrobenzo[f][1,4]oxazepine-5-carboxylic acid tert-butylamide]
[1]
  EC50: > 10 µM

## CC(C)(C)NC(=O)C1c2cc(F)ccc2OCCN1Cc1ccccc1-c1ccncc1 (stereo not drawn) [Compound 18, 4-[2-(pyridin-4-yl)benzyl]-7-fluoro-2,3,4,5-tetrahydrobenzo[f][1,4]oxazepine-5-carboxylic acid tert-butylamide]
[1]
  EC50: 1 to 10 µM
